{"source": "patent US12186397B2", "about": "“Adhesive cell tissue gels” (National Cheng Kung University, priority 2011, dated 2025)", "key": {"NIH3T3 fibroblast cells": {"tested_on": "NIH3T3 fibroblast cells", "test": "Toxicity of collagen gels with crosslinking agents (Example 3)", "format": "cell-based", "conditions": "for relative toxicity among the three crosslinking agents: collagen gels", "protocol": "Gels were prepared from collagen with glutaraldehyde, EX-810, and genipin at 5 mN, 1 mN, 0.5 mN, and 0.1 mN, respectively. Out of the three crosslinking agents, glutaraldehyde was the most toxic and genipin was the least toxic. Normality was used to indicate the numbers of reactive groups in the crosslinking agents. NIH3T3 fibroblast cells were cultured with the gels and a culture medium in a 96-well plate at 4×10^4 cells per well. Cell viability was observed."}, "Fibroblasts [1]": {"tested_on": "Fibroblasts", "test": "Viability of cells in contact with crosslinking agents or gels with quenching agents (Example 2)", "format": "cell-based", "protocol": "Gels containing various ratios of reactive groups in crosslinking agents to those in the matrix molecules with quenching agents were prepared as indicated in Table 2. Normality was used to indicate the number of reactive groups in the crosslinking agents, the number of functional groups in the matrix molecules, or the number of moieties in the quenching agents. Live cells were seeded and added to the gels, and cell viability was observed. Crosslinking agents were divided into two groups: highly toxic and less toxic. Glutaraldehyde was one of the highly toxic crosslinking agents and epoxide and genipin were the less toxic crosslinking agents. The quenching agents tested were poly-L-lysine and γ-polyglutamic acid.\nThe above results were summarized from various sets of experiments. Specifically, final concentrations of 0.1 mN, 0.5 mN, 1 mN, and 5 mN of glutaraldehyde were tested alone or added to a gelatin or collagen solution in the presence of poly-L-Lysine as a quenching reagent."}, "Fibroblasts [2]": {"tested_on": "Fibroblasts", "quoted_text": "The cytotoxic effect of the adhesive was evaluated by applying 10 μL of the adhesive to the center of a well of a 24-well plate. Fibroblasts (2.0×10^4 cell/well) were seeded and incubated at 37° C. with 5% CO2 for 38 hours. The number of viable cells was quantified by a hemacytometer."}}, "note": "“Also recorded” adds a separate entry of the source. Where two headings read alike, the source gives them in different places.", "data": [{"compound": "COC(=O)C1=CO[C@@H](O)[C@@H]2C(CO)=CC[C@H]12", "note": "[genipin]", "values": [{"measurement": "cell proliferation", "setting": "NIH3T3 fibroblast cells; collagen gel, 1 mN crosslinker", "value": "no cell proliferation"}, {"measurement": "cells survived", "setting": "NIH3T3 fibroblast cells; collagen gel, 1 mN crosslinker", "value": "over 80%"}, {"measurement": "cell viability", "setting": "NIH3T3 fibroblast cells; collagen gel, 5 mN crosslinker", "value": "all cells died"}, {"measurement": "relative toxicity among the three crosslinking agents", "setting": "NIH3T3 fibroblast cells", "value": "least toxic"}, {"measurement": "fibroblast viability in gel", "setting": "Fibroblasts [1]; 5 mN crosslinker and total 5 mN collagen and poly-L-lysine", "value": "some fibroblasts died; also recorded: most fibroblasts survived in the distal area"}, {"measurement": "Viability of cells", "setting": "Fibroblasts [1]; Normality ratio 1:1 of reactive groups in crosslinking agent to functional groups in matrix molecules and quenching agents", "value": "Some"}, {"measurement": "Viability of cells (alive)", "setting": "Fibroblasts [1]; Normality ratio 1:5", "value": 100, "unit": "%"}, {"measurement": "Viability of cells (alive)", "setting": "Fibroblasts [1]; Normality ratio 1:10", "value": 100, "unit": "%"}, {"measurement": "Viability of cells (alive)", "setting": "Fibroblasts [1]; Normality ratio 1:50", "value": 100, "unit": "%"}, {"measurement": "Viability of cells", "setting": "Fibroblasts [1]; Normality ratio 5:1 of reactive groups in crosslinking agent to functional groups in matrix molecules and quenching agents", "value": "All die"}, {"measurement": "Viability of cells (alive)", "setting": "Fibroblasts [1]; crosslinking agent only, 1 mN", "value": "≥80", "unit": "%"}, {"measurement": "Viability of cells", "setting": "Fibroblasts [1]; crosslinking agent only, ≥5 mN", "value": "All die"}, {"measurement": "cytotoxicity of the adhesive", "setting": "Fibroblasts [2]", "value": "increased with elevated concentration of genipin"}]}, {"compound": "O=CCCCC=O", "note": "[glutaraldehyde]", "values": [{"measurement": "cells adhered to the gel", "setting": "NIH3T3 fibroblast cells; collagen gel, 0.1 mN crosslinker", "value": 20, "unit": "%"}, {"measurement": "cell viability", "setting": "NIH3T3 fibroblast cells; collagen gel, 0.5 mN crosslinker, 24 hours of culturing", "value": "most cells died"}, {"measurement": "relative toxicity among the three crosslinking agents", "setting": "NIH3T3 fibroblast cells", "value": "most toxic"}, {"measurement": "Viability of cells (alive)", "setting": "Fibroblasts [1]", "value": 100, "unit": "%"}, {"measurement": "cell viability in gel", "setting": "Fibroblasts [1]", "value": "most adjacent cells died"}, {"measurement": "fibroblast viability in gel", "setting": "Fibroblasts [1]", "value": "survived and proliferated like the control groups"}, {"measurement": "Viability of cells (alive)", "setting": "Fibroblasts [1]; 24 h, 0.1 mN", "value": "~20", "unit": "%"}, {"measurement": "cells survived", "setting": "Fibroblasts [1]; 24 h, 0.1 mN", "value": "about 20%"}]}]}
